{
  "source": "patent US10231979B2",
  "about": "“Modulation of inflammation using progesterone metabolites” (Indiana University Research and Technology Corporation, priority 2015, dated 2019)",
  "key": {"[1]": {"test_system": "primary uterine smooth muscle cells (UtSMC)", "experiment": "IL-6 production in UtSMC stimulated with LPS", "format": "cell-based", "conditions": "UtSMC pre-treated, then LPS", "method": "In this Example, the effect of progesterone metabolites 16αOHP and 6β-OHP on inflammation in primary uterine smooth muscle cells (UtSMC) was analyzed.\nUtSMC were cultured in the presence of DMSO and one of the following: (1) progesterone; (2) […]; (3) 6β-OHP; and (4) 16αOHP. Lipopolysaccharide (LPS) was then added to the culture to stimulate an immune inflammatory reaction. Experiments were performed in triplicate."}, "THP-1 monocytes": {"test_system": "THP-1 monocytes", "experiment": "IL-6 production in THP-1 monocytes stimulated with LPS", "format": "cell-based", "conditions": "THP-1 monocytes pretreated, then LPS; versus positive control", "method": "FIG. 9 is a graph depicting the effect of progesterone and progesterone metabolites (16αOHP and 6β-OHP) on inflammation in THP-1 monocytes stimulated with LPS.\nIn this Example, the effect of progesterone and progesterone metabolites (16αOHP and 6β-OHP) on inflammation in THP-1 monocytes stimulated with LPS was analyzed."}, "[2]": {"test_system": "uterine horns from wild-type (WT) C57BL/6J female mice", "experiment": "Spontaneous uterine contractility, isolated uterine horns in tissue organ bath", "conditions": "for IC50: spontaneous, dose-response 10^-9 to 10^-6 mol/L", "method": "(§1) FIGS. 2A & 2B are representative contraction tracings of uterine horns from wild-type (WT) C57BL/6J female mice. FIG. 2A: Uterine horns were isolated and suspended in a tissue organ bath at 0.5 g of tension. Once equilibrated, selected progestin treatments were added in successively increasing concentrations from 10^−9 to 10^−6 mol/L in 20-minute intervals to assess effect on spontaneous contractile activity (progesterone treatment, bottom panel). The contralateral horn from each mouse was treated with a matching ethanol vehicle (top panel). All contraction responses were measured and reported as the area under the contraction curve (AUC), normalized to the AUC of the spontaneous contraction pattern that preceded treatment. FIG. 2B: Treatment effect on oxytocin-induced contractility was assessed by exposing horns to selected progestin treatments (10^−6 mol/L), followed by increasing doses of oxytocin (Oxt) (1, 10, 50, and 100 nmol/L) in 10-minute intervals (bottom panel). The contralateral horn from each mouse was treated with a matching ethanol vehicle (top panel). Contraction responses were measured and reported as described above.\n(§2) All progestins were solubilized in ethanol and then diluted in phosphate-buffered saline to the desired molar concentration. […] The concentration of ethanol decreased parallel to the progestin dose in order to minimize the effect of the solvent on uterine contractility.\n(§3) Virgin nonpregnant wild-type C57BL/6J female mice (Jackson Labs, Bar Harbor, Me.) were obtained at 10 to 12 weeks of age and fed a standard diet. Mice were euthanized by an IACUC-approved protocol, and each of the 2 uterine horns were removed. A 1 cm×0.5 cm segment of the uterine horn was suspended using 4-0 silk suture between a stainless steel wire hook connected to a Radnoti force displacement transducer (Radnoti LLC, Monrovia, Calif.) and a glass hook inside an organ bath that served as an anchor. The bath was filled with modified Krebs buffer (118 mmol/L NaCl, […], 1.2 mmol/L MgSO4, 1.2 mmol/L KH2PO4, 2.5 mmol/L CaCl2, 25 mmol/L NaHCO3, and 11 mmol/L glucose, pH 7.4), maintained at 37° C., and constantly bubbled with a premixed gas consisting of 20% O2, 5% CO2, and balance N2. Uterine horns were equilibrated at 0.5 g of tension for approximately 30 minutes until a spontaneous contraction pattern was established.\nA total of 60 mice were utilized to assess the effect of the selected treatments on uterine contractility, 30 in the spontaneous contraction group and 30 in the oxytocin-induced group. Six mice were in each progestin treatment group during both spontaneous and oxytocin-induced contractility arms of the study. To determine the nongenomic (acute) effect of the progestin treatments on spontaneous uterine contractility, a segment of uterine horn from each mouse was exposed to a single progestin (progesterone, 17-OHPC, 2α-OHP, 6β-OHP, or 16αOHP), while a segment of the contralateral horn was exposed to a matching dose of ethanol vehicle. After a spontaneous contraction pattern was achieved, the progestin treatment was added to the tissue organ bath in successively increasing concentrations from 10^−9 to 10^−6 mol/L in 20-minute intervals. At the end of the treatments, the tissue was washed in modified Krebs buffer and then exposed to KCl (60 mmol/L) to elicit a tetanic response and confirm tissue viability.\nUterine contraction responses were recorded using LabChart Pro (ADInstruments, Colorado Springs, Colo.) software as the force generated with time (g×min). Baseline uterine contractility was calculated as the area under the curve (AUC) for a 10-minute period of spontaneous contractions. The AUC of the uterine contractile response to each treatment (progestin or oxytocin) was determined and expressed as a percentage of the baseline AUC observed during spontaneous contraction. […]"}, "[3]": {"test_system": "uterine horns from wild-type (WT) C57BL/6J female mice", "experiment": "Oxytocin-induced uterine contractility after progestin pretreatment, isolated uterine horns in tissue organ bath", "conditions": "for EC50: oxytocin-induced dose-response (1-100 nmol/L oxytocin) after progestin pretreatment 10^-6 mol/L", "method": "as §1, §2, §3\nTo determine the nongenomic effect of progestin treatments on oxytocin-induced uterine contractility, the uterine horns were pretreated with a single progestin at 10^−6 mol/L for 10 minutes after a spontaneous contractile pattern was established. The contralateral horn from the same mouse was treated with ethanol vehicle at a matching concentration. The uterine horns were subsequently exposed to increasing concentrations of oxytocin (1, 10, 50, and 100 nmol/L) in 10-minute intervals. At the end of the oxytocin treatments, the tissue was washed and then exposed to KCl (60 mmol/L) to elicit a tetanic response and confirm tissue viability.\nUterine contraction responses were recorded using LabChart Pro (ADInstruments, Colorado Springs, Colo.) software as the force generated with time (g×min). Baseline uterine contractility was calculated as the area under the curve (AUC) for a 10-minute period of spontaneous contractions. The AUC of the uterine contractile response to each treatment (progestin or oxytocin) was determined and expressed as a percentage of the baseline AUC observed during spontaneous contraction. […] To account for repeated measurements for individual muscle strips at increasing treatment doses, a repeated measures 2-way analysis of variance model was used to compare the dose-response curves. Each dose-response curve was fit by nonlinear regression and compared using an extra sum of squares F test. The mean max-fit response was compared between each progestin and vehicle control to determine maximum treatment efficacy. […]"}, "[4]": {"test_system": "primary uterine smooth muscle cells (UtSMC)", "experiment": "IL-6 production in UtSMC stimulated with TNF-α", "format": "cell-based", "from_the_text": "FIGS. 5A & 5B are graphs depicting the effect of progesterone metabolites 16αOHP and 6β-OHP on inflammation in primary uterine smooth muscle cells (UtSMC)."}, "CYP3A [5]": {"test_system": "CYP3A"}, "THP-1 monocyte cells": {"test_system": "THP-1 monocyte cells", "experiment": "Flow cytometry of monocyte-derived macrophage population (PMA differentiation)", "format": "cell-based", "conditions": "THP-1 pre-treated 24 hours, then PMA", "method": "FIGS. 6A-6C depict flow cytometry of a monocyte-derived macrophage population pre-treated with progesterone metabolites. THP-1 monocyte cells were pre-treated with progesterone metabolites 16αOHP and 6β-OHP for 24 hours, then stimulated to differentiate to macrophages by exposure to PMA.\nTHP-1 monocyte cells were pre-treated with progesterone metabolites 16αOHP and 6β-OHP for 24 hours, then stimulated to differentiate to macrophages by exposure to phorbol 12-myristate 13-acetate (PMA)."}, "CYP3A [6]": {"test_system": "CYP3A", "experiment": "CYP3A production of 16α-OHP and 6β-OHP in human liver microsomes (HLMs)", "conditions": "p<0.01"}, "[7]": {"conditions": "maximal oxytocin dose (100 nmol/L)"}, "[8]": {"conditions": "oxytocin-induced, progestin pretreatment 10^-6 mol/L, maximal oxytocin dose (100 nmol/L)"}},
  "note": "Where two headings read alike, the source gives them in different places.",
  "data": [
    {"compound": "CC(=O)[C@H]1CC[C@H]2[C@@H]3C[C@@H](O)C4=CC(=O)CC[C@]4(C)[C@H]3CC[C@]12C", "note": "[6β-OHP, 4-pregnen-6β-ol-3,20-dione]", "values": [
      {"measurement": "IL-6", "setting": "[1]; LPS positive control 121.7 pg/mL", "value": 125.4, "unit": "pg/mL"},
      {"measurement": "IL-6, % of positive control", "setting": "[1]; relative to DMSO+LPS positive control", "value": 102, "unit": "%"},
      {"measurement": "Inflammatory response (IL-6 production) (in words)", "setting": "THP-1 monocytes", "value": "significantly decreased IL-6 production"},
      {"measurement": "Spontaneous contractile force compared with the vehicle control (in words)", "setting": "[2]; maximal treatment dose", "value": "No significant difference"},
      {"measurement": "Spontaneous uterine contraction frequency compared to vehicle control (in words)", "setting": "[2]; maximal treatment dose", "value": "not significantly decreased"},
      {"measurement": "Contractile Frequency/10 min (% of baseline), Drug", "setting": "[2]; spontaneous contractility, maximal treatment dose", "value": "46.2% of baseline"},
      {"measurement": "Contractile Force (% of baseline), Drug", "setting": "[2]; spontaneous contractility, maximal treatment dose, AUC as % of baseline AUC", "value": "45% of baseline"},
      {"measurement": "IC50", "setting": "[2]; read-out: Contractile Force IC50", "value": 0.48, "unit": "nM"},
      {"measurement": "IC50", "setting": "[2]; read-out: Contractile Frequency IC50", "value": 4.1, "unit": "nM"},
      {"measurement": "Effect on oxytocin-induced uterine contractility (in words)", "setting": "[3]", "value": "increase"},
      {"measurement": "Oxytocin-induced contractile force compared to vehicle control (in words)", "setting": "[3]; [7]", "value": "no differences"},
      {"measurement": "Oxytocin-induced contraction frequency compared to control (in words)", "setting": "[3]; [7]", "value": "decreased significantly"},
      {"measurement": "EC50", "setting": "[3]; read-out: Contractile Force EC50", "value": 20.9, "unit": "nM"},
      {"measurement": "EC50", "setting": "[3]; read-out: Contractile Frequency EC50", "value": 12.8, "unit": "nM"},
      {"measurement": "Contractile Force (% of baseline), Drug", "setting": "[3]; [8]", "value": "267.6% of baseline"},
      {"measurement": "Contractile Frequency/10 min (% of baseline), Drug", "setting": "[3]; [8]", "value": "196.1% of baseline"},
      {"measurement": "Contractile Frequency/10 min (% of baseline), Drug", "setting": "[3]; oxytocin-induced, progestin pretreatment 10^-6 mol/L, maximal oxytocin dose (100 nmol/L), listed as 6β-hydroxyprogesterone", "value": "196 % of baseline"},
      {"measurement": "IL-6 production (in words)", "setting": "[4]", "value": "decreased IL-6 production"},
      {"measurement": "Production of metabolite in human liver microsomes (in words)", "setting": "CYP3A [5]", "value": "favored"},
      {"measurement": "Macrophage population/phenotype compared to DMSO treated control (in words)", "setting": "THP-1 monocyte cells", "value": "decrease in the macrophage population/phenotype"},
      {"measurement": "Macrophages, % of the total population", "setting": "THP-1 monocyte cells; DMSO control 77%", "value": 52, "unit": "%"}
    ]},
    {"compound": "CC(=O)N1CCN(c2ccc(OCC3COC(Cn4ccnc4)(c4ccc(Cl)cc4Cl)O3)cc2)CC1", "note": "(stereo not shown) [ketoconazole]", "values": [
      {"measurement": "Effect on CYP3A production of 16α-OHP and 6β-OHP", "setting": "CYP3A [6]", "value": "inhibited"}
    ]}
  ]
}
